Values of other authors in patent US12605434B2, “Composition for preventing or treating autoimmune diseases” (STATENS SERUM INSTITUT, priority 2021, dated 2026).

Test system: Th17 polarization

## CC1=C(/C=C/C(C)=C/C=C/C(C)=C/C(=O)O)C(C)(C)CCC1 [ATRA, all-trans retinoic acid]
Elias_2008, Kwok_2012
  FoxP3 expression: enhancing FoxP3 expression
  Th17 polarization: inhibit the Th17 polarization
Mucinda_2007
  RORγT in T cells: reduction of RORγT
